The values below come from patent US12258317B2, “Isoquinolinone compound for inhibiting ssao/vap-1, and use thereof” (SUNSHINE LAKE PHARMA CO., LTD., priority 2019, dated 2025).

One test has as its target Human recombinant DAO (Homo sapiens (Human), UniProt P19801). The test can be described thus: Determination of selective inhibition of DAO (diamine oxidase) (Amplex Red, 1,4-diaminobutane substrate). Type of test: biochemical. The conditions noted are these: 30 min pre-incubation at 37° C. The text has this:
2. Determination of Selective Inhibition of DAO (Diamine Oxidase)
Test purpose: The following method is used to determine the selective inhibitory activity of the compound of the present invention on DAO.
• Human recombinant DAO (Recombinant Human ABP-1/DAO) was purchased from R&D, Cat. No. 8298-AO; • Amplex® Red Hydrogen PeroxidePeroxidase Assay Kit was purchased from Invitrogen, Cat. No. A22188; • 1,4-Diaminobutane dihydrochloride was purchased from Aladdin, Cat. No. D106194-25G. Test Method:
The test compound was dissolved in DMSO and diluted 5 times to a total of 6 concentrations. In a 384-well plate, 24 μL of human recombinant DAO (1 μg/mL) was added into each well. 1 μL of test compounds at different concentrations were added to each well containing human recombinant DAO, and the plate was incubated at 37° C. for 30 min. After incubating for 30 min, 25 μL of Amplex® Red Hydrogen Peroxide Peroxidase Assay Kit (containing 100 μM Amplex® Red and 0.2 U/ml HRP) containing 1 M 1,4-butanediamine dihydrochloride was added into the corresponding wells, and the plate was incubated in the dark at 37° C. for 30 min. After 30 min, PHERAstar FSX microplate reader of BMG LABTECH was used to read the fluorescence value (RFU) under excitation at 540 nm and emission at 580 nm. The graph was drawn using Graph Pad Prism 5 software to calculate the IC50 value.

For test [1], the target named is human recombinant SSAO/VAP-1 (Homo sapiens (Human), UniProt Q16853). Briefly: Determination of inhibitory activity of human recombinant SSAO/VAP-1 (Amplex Red, benzylamine substrate). Format: biochemical. Particulars: 30 min pre-incubation at room temperature; read-out: SSAO/VAP-1 (Human Recombinant Protein) IC50. The text has this: 1. Determination of Inhibitory Activity of Human Recombinant SSAO/VAP-1
Chain of human recombinant SSAO/VAP-1 (Q16853 whole entry): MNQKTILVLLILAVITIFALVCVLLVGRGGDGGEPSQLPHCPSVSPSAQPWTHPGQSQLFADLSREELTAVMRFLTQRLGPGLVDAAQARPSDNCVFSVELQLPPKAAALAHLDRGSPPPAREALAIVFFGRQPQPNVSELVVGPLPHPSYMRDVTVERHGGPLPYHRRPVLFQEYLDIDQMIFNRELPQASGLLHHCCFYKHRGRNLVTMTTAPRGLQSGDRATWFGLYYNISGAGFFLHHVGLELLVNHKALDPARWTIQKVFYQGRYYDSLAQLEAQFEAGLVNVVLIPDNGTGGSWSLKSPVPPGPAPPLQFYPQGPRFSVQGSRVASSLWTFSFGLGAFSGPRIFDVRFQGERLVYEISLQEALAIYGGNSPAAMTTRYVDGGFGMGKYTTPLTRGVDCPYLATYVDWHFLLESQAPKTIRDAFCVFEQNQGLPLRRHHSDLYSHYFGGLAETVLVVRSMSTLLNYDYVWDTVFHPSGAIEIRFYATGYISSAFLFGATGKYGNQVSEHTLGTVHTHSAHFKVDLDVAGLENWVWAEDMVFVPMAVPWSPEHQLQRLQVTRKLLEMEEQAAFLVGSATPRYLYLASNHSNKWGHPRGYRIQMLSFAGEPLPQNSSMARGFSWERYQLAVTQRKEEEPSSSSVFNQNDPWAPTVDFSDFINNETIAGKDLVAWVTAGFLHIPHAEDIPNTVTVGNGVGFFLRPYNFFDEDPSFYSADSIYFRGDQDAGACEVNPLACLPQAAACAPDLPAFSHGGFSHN
Test purpose: The following method is used to determine the inhibitory activity of the compounds in the examples of the present invention on human recombinant SSAO/VAP-1.
• Human recombinant SSAO/VAP-1 (VAP-1, human) was purchased from Sigma, Cat. No. SRP6241; • Amplex® Red Monoamine Oxidase Assay Kit was purchased from Invitrogen, Cat. No. A12214; • 384-well plate was purchased from Corning, Cat. No. 6005174; • Amplex® Red Hydrogen PeroxidePeroxidase Assay Kit was purchased from Invitrogen, Cat. No. A22188.
Benzylamine hydrochloride was purchased from Sigma, Cat. No. B5136-25G; • DMSO (Dimethyl Sulfoxide) was purchased from Sigma, Cat. No. D2650-100ML; Test Method:
The test compound was dissolved in DMSO and diluted 4 times to a total of 10 concentrations. In a 384-well plate, 25 μL of human recombinant SSAO/VAP-1 (1.6 μg/mL) was added into each well. 100 nL of test compounds at different concentrations were added to each well containing human recombinant SSAO/VAP-1, and the plate was incubated at room temperature for 30 min. After incubating for 30 min, 25 μL of Amplex® Red Monoamine Oxidase Assay Kit (a reaction mixture containing 200 μM Amplex Red reagent, 1 U/mL HRP and 1 mM benzylamine hydrochloride) was added into the corresponding wells, and the plate was incubated at room temperature in the dark for 60 min. After 60 min, PerkinElmer's Envision was used to read the fluorescence value (RFU) under excitation at 530-560 nm and emission at 590 nm. The graph was drawn using Graph Pad Prism 5 software to calculate the IC50 value.

Counter-ions that a name gives are not always drawn.

Chain of Human recombinant DAO (P19801 20-751): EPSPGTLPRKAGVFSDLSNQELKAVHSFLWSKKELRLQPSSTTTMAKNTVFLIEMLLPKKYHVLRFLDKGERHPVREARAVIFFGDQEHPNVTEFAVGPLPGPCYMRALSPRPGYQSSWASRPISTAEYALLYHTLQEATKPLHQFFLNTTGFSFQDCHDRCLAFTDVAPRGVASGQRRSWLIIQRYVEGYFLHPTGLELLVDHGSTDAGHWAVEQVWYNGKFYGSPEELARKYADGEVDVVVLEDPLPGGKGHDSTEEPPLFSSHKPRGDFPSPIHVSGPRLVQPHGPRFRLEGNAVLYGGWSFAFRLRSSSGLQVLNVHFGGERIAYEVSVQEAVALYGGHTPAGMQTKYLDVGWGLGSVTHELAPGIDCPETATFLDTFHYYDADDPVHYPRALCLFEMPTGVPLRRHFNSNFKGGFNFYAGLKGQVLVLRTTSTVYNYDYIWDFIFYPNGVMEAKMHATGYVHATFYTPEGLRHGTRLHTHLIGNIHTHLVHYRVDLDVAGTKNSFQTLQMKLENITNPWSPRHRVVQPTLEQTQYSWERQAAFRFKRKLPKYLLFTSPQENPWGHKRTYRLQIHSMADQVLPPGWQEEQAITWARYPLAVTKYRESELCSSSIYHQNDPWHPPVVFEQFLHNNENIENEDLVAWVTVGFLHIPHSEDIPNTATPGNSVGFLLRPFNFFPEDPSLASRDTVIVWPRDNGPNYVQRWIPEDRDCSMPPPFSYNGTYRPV

On to `CNC(=O)CN1CCc2cc(OC/C(=C/F)CN)ccc2C1=O` [Example 3, 2-[6-[(E)-2-(aminomethyl)-3-fluoro-allyloxy]-1-oxo-3,4-dihydroisoquinolin-2-yl]-N-methyl-acetamide hydrochloride], for which, at Human recombinant DAO, the IC50 was above 100 nM.

For `CNC(=O)CN1CCc2cc(OC/C(=C\F)CN)ccc2C1=O` [Example 4, 2-[6-[(Z)-2-(aminomethyl)-3-fluoro-allyloxy]-1-oxo-3,4-dihydroisoquinolin-2-yl]-N-methyl-acetamide hydrochloride], the IC50 in test [1] was found to be 3.7 nM.

Take `CCNC(=O)CN1CCc2cc(OC/C(=C/F)CN)ccc2C1=O` [Example 5, 2-[6-[(E)-2-(aminomethyl)-3-fluoro-allyloxy]-1-oxo-3,4-dihydroisoquinolin-2-yl]-N-ethyl-acetamide hydrochloride]: on Human recombinant DAO, the IC50 is above 100 nM.

With `CCNC(=O)CN1CCc2cc(OC/C(=C\F)CN)ccc2C1=O` [Example 6, 2-[6-[(Z)-2-(aminomethyl)-3-fluoro-allyloxy]-1-oxo-3,4-dihydroisoquinolin-2-yl]-N-ethyl-acetamide hydrochloride], in test [1], the IC50 was 4.12 nM.

Take `CN(C)C(=O)CN1CCc2cc(OC/C(=C/F)CN)ccc2C1=O` [Example 7, 2-[6-[(E)-2-(aminomethyl)-3-fluoro-allyloxy]-1-oxo-3,4-dihydroisoquinolin-2-yl]-N, N-dimethyl-acetamide hydrochloride]: the IC50 was 11.1 nM in test [1] and above 1000 nM on Human recombinant DAO.

`CN(C)C(=O)CN1CCc2cc(OC/C(=C\F)CN)ccc2C1=O` [Example 8, 2-[6-[(Z)-2-(aminomethyl)-3-fluoro-allyloxy]-1-oxo-3,4-dihydroisoquinolin-2-yl]-N,N-dimethyl-acetamide hydrochloride]: the IC50 in test [1] was found to be 1 nM.

`CC(C)NC(=O)CN1CCc2cc(OC/C(=C/F)CN)ccc2C1=O` [Example 9, 2-[6-[(E)-2-(aminomethyl)-3-fluoro-allyloxy]-1-oxo-3,4-dihydroisoquinolin-2-yl]-N-isopropyl-acetamide hydrochloride]: the IC50 at Human recombinant DAO is above 1000 nM.

As for `CC(C)CNC(=O)CN1CCc2cc(OC/C(=C/F)CN)ccc2C1=O` [Example 11, 2-[6-[(E)-2-(aminomethyl)-3-fluoro-allyloxy]-1-oxo-3,4-dihydroisoquinolin-2-yl]-N-isobutyl-acetamide hydrochloride], at Human recombinant DAO, the IC50 is above 100 nM.

As for `NC/C(=C\F)COc1ccc2c(c1)CCN(CC(=O)NCC(F)(F)F)C2=O` [Example 13, 2-[6-[(E)-2-(aminomethyl)-3-fluoro-allyloxy]-1-oxo-3,4-dihydroisoquinolin-2-yl]-N-(2,2,2-trifluoroethyl)acetamide hydrochloride], the IC50 on Human recombinant DAO is above 100 nM.

For `CC(C)(C)NC(=O)CN1CCc2cc(OC/C(=C/F)CN)ccc2C1=O` [Example 15, 2-[6-[(E)-2-(aminomethyl)-3-fluoro-allyloxy]-1-oxo-3,4-dihydroisoquinolin-2-yl]-N-tert-butyl-acetamide hydrochloride], at Human recombinant DAO, the IC50 is above 100 nM.

On to `NC/C(=C\F)COc1ccc2c(c1)CCN(CC(=O)NC1CC1)C2=O` [Example 16, 2-[6-[(E)-2-(aminomethyl)-3-fluoro-allyloxy]-1-oxo-3,4-dihydroisoquinolin-2-yl]-N-cyclopropyl-acetamide hydrochloride], for which the IC50 on Human recombinant DAO was above 100 nM.

As for `NC/C(=C\F)COc1ccc2c(c1)CCN(CC(=O)NC1CCC1)C2=O` [Example 17, 2-[6-[(E)-2-(aminomethyl)-3-fluoro-allyloxy]-1-oxo-3,4-dihydroisoquinolin-2-yl]-N-cyclobutyl-acetamide hydrochloride], the IC50 on Human recombinant DAO is above 100 nM.

In the case of `CS(=O)(=O)CCNC(=O)CN1CCc2cc(OC/C(=C/F)CN)ccc2C1=O` [Example 18, 2-[6-[(E)-2-(aminomethyl)-3-fluoro-allyloxy]-1-oxo-3,4-dihydroisoquinolin-2-yl]-N-(2-methanesulfonylethyl)acetamide hydrochloride], the IC50 in test [1] is 8.66 nM; on Human recombinant DAO, above 1000 nM.

Regarding `NC/C(=C\F)COc1ccc2c(c1)CCN(CC(=O)NC1CC(F)(F)C1)C2=O` [Example 19, 2-[6-[(E)-2-(aminomethyl)-3-fluoro-allyloxy]-1-oxo-3,4-dihydroisoquinolin-2-yl]-N-(3,3-difluorocyclobutyl)-acetamide hydrochloride], the IC50 in test [1] is 4.01 nM; on Human recombinant DAO, above 1000 nM.

`NC/C(=C\F)COc1ccc2c(c1)CCN(CC(=O)N1CCCC1)C2=O` [Example 20, 6-[(E)-2-(aminomethyl)-3-fluoro-allyloxy]-2-(2-oxo-2-pyrrolidin-1-yl-ethyl)-3,4-dihydroisoquinoline-1-one hydrochloride]: at Human recombinant DAO, the IC50 is above 100 nM.

For `CCCNC(=O)CN1CCc2cc(OC/C(=C/F)CN)ccc2C1=O` [Example 21, 2-[6-[(E)-2-(aminomethyl)-3-fluoro-allyloxy]-1-oxo-3,4-dihydroisoquinolin-2-yl]-N-propyl-acetamide hydrochloride], the IC50 was 11.8 nM in test [1] and above 1000 nM on Human recombinant DAO.

As to `COCCNC(=O)CN1CCc2cc(OC/C(=C/F)CN)ccc2C1=O` [Example 22, 2-[6-[(E)-2-(aminomethyl)-3-fluoro-allyloxy]-1-oxo-3,4-dihydroisoquinolin-2-yl]-N-(2-methoxyethyl)acetamide hydrochloride], the IC50 at Human recombinant DAO is above 100 nM.

Regarding `CCOP(=O)(CCN1CCc2cc(OC/C(=C/F)CN)ccc2C1=O)OCC` [Example 24, 6-[(E)-2-(aminomethyl)-3-fluoro-allyloxy]-2-(2-diethoxyphosphorylethyl)-3,4-dihydroisoquinoline-1-one hydrochloride], the IC50 in test [1] was 3.67 nM; on Human recombinant DAO it was above 100 nM.

For the compound `CS(=O)(=O)CCN1CCc2cc(OC/C(=C/F)CN)ccc2C1=O` [Example 25, 6-[(E)-2-(aminomethyl)-3-fluoro-allyloxy]-2-(2-methylsulfonylethyl)-3,4-dihydroisoquinoline-1-one hydrochloride], the IC50 in test [1] was 3.38 nM; at Human recombinant DAO, above 100 nM.
